Results reported in patent US12233073B2, “Skin care formulations and skin cancer treatment” (Regents of the University of Minnesota, priority 2017, dated 2025).
Where two headings read alike, the source gives them in different places.

What was measured:
collagen 1A = assay: Induction of collagen 1A; type: cell-based; conditions: for Rating (Collagen 1A): second rating in cell
Method: (§1) Higher elastin and collagen activity is indicative of anti-wrinkling or anti-aging effects. Activation of the antioxidant response element (ARE) pathway was also evaluated. The NF-E2-related factor (Nrf2) is a critical transcription factor in oxidative stress signaling. Nrf2 binds to the ARE and serves as a master regulator in cellular defense pathways. The ARE pathway mediates the transcriptional induction of a battery of genes that help to protect the cells against oxidative damage. Activation of the ARE promoter leads to more endogenous antioxidants and cell detoxification.

[1] = test system: antioxidant response element (ARE) pathway; assay: Activation of the antioxidant response element (ARE) pathway; type: cell-based; conditions: for Rating (ARE): third rating in cell
Method: as §1

elastin = assay: Induction of elastin; type: cell-based; conditions: for Rating (Elastin): first rating in cell
Method: as §1

[2] = test system: nuclear factor kappa B (NF-κB) pathway; assay: Cell-based assay of the nuclear factor kappa B (NF-κB) pathway; conditions: for Rating (inhibition of NF-κB): one rating per compound; for inhibition at 10 µg/mL / inhibition at 50 µg/mL / inhibition at 100 µg/mL: read-out: % inhibition of NF-κB
Method: The effect of adding anti-aging and/or anti-wrinkling compounds to the skin care formulation of EXAMPLE 18 on nuclear factor kappa B (NF-κB) mediated-inflammation was evaluated.
A cell-based assay was performed to determine the effective of each of these compounds. The assay involved the effect of each compound on the nuclear factor kappa B (NF-κB) pathway. The inhibition of NF-κB is indicative of a protective effect against aging and wrinkling.

UV-induced ROS = assay: Inhibition of the production of UV-induced reactive oxygen species (ROS); type: cell-based; conditions: for inhibition at 10 µg/mL: read-out: % inhibition of UV-induced ROS
Method: The effect of the compounds of EXAMPLE 20 on inhibition of the production of reactive oxygen species (ROS), which can damage skin cells, was evaluated.

| SMILES | fold induction at 10 µg/mL (collagen 1A; final dose 10 μg/ml) | fold induction at 50 µg/mL (collagen 1A; final dose 50 μg/ml) | fold induction at 100 µg/mL (collagen 1A; final dose 100 μg/ml) | Rating (Collagen 1A) (collagen 1A) | fold induction at 10 µg/mL ([1]; final dose 10 μg/ml) | fold induction at 50 µg/mL ([1]; final dose 50 μg/ml) | fold induction at 100 µg/mL ([1]; final dose 100 μg/ml) | Rating (ARE) [1] | fold induction at 10 µg/mL (elastin; final dose 10 μg/ml) | fold induction at 50 µg/mL (elastin; final dose 50 μg/ml) | fold induction at 100 µg/mL (elastin; final dose 100 μg/ml) | Rating (Elastin) (elastin) | Rating (inhibition of NF-κB) [2] | inhibition at 100 µg/mL [2] [%] | % inhibition of NF-κB ([2]; final dose 10 μg/ml) | % inhibition of NF-κB ([2]; final dose 50 μg/ml) | inhibition at 100 µg/mL ([2]; final dose 100 μg/ml) [%] | inhibition at 10 µg/mL (UV-induced ROS; final dose 10 μg/ml) [%] | inhibition at 50 µg/mL ([2]; final dose 50 μg/ml) [%] | further results |
| --- | --- | --- | --- | --- | --- | --- | --- | --- | --- | --- | --- | --- | --- | --- | --- | --- | --- | --- | --- | --- |
| C=CCc1ccc(O)c(-c2cc(CC=C)ccc2O)c1 [HI-3, magnolol] | < 1.3 | < 1.3 | < 1.3 | none | < 1.3 | < 1.3 | < 1.3 | none | < 1.3 | 4 | 2.8 | none | **** (very high activity (>76%)) | > 90 |  |  |  |  |  | Cytotoxicity remark in Rating column ([2]; NF-κB cell-based assay): slightly cytotoxic; inhibition at 10 µg/mL [2]: > 90%; inhibition at 50 µg/mL [2]: > 90%; inhibition at 10 µg/mL (UV-induced ROS): ~10% |
| O=c1c(O)c(-c2ccc(O)cc2)oc2c(O)c(O)cc(O)c12 [HI-12, herbacetin] | < 1.3 | < 1.3 | < 1.3 | none | < 1.3 | < 1.3 | < 1.3 | none | 2 | < 1.3 | 2 |  | none |  | none | none | 49 | ~50 |  |  |
| O=c1c(O)c(-c2cc(O)c(O)c(O)c2)oc2cc(O)cc(O)c12 [HI-8, myricetin] | < 1.3 | < 1.3 | < 1.3 | none | < 1.3 | < 1.3 | < 1.3 | none | < 1.3 | 3 | 2.8 |  | none |  | none |  | 44 | > 70 | 39 |  |
| O=c1c(-c2ccc(O)cc2)coc2cc(O)c(O)cc12 [HI-4, 6,7,4′-trihydroxyisoflavone] | 2 | < 1.3 | < 1.3 | ****, ****, **** (very high activity (>76%)) | 2 | < 1.3 | < 1.3 | ****, ****, **** (very high activity (>76%)) | 2 | 2 | < 1.3 |  | none |  | none | none |  | > 70 |  | % inhibition of NF-κB ([2]; final dose 100 μg/ml): none |
| O=c1c(-c2ccc(O)c(O)c2)coc2cc(O)ccc12 [HI-1, 7,3,4′-trihydroxyisoflavone] | 1.5 | 3 | < 1.3 | **, **, N/A (medium activity (31-55%)) | < 1.3 | 3 | 5 |  | 1.5 | 2 | < 1.3 |  | none |  | none |  | 40 | > 70 | 14 |  |
| O=C(/C=C/c1ccc(O)c(O)c1)OCCc1ccccc1 [HI-6, caffeic acid phenylethyl ester] | < 1.3 | < 1.3 | < 1.3 | none, none, N/A | < 1.3 | < 1.3 | < 1.3 |  | < 1.3 | < 1.3 | 2 | none, none, N/A | *** (high activity (56-75%)) | > 90 |  |  |  |  |  | inhibition at 10 µg/mL [2]: 64%; inhibition at 50 µg/mL [2]: > 90%; inhibition at 10 µg/mL (UV-induced ROS): > 70% |
| O=c1c(O)c(-c2ccc(O)cc2)oc2cc(O)ccc12 [HI-7, 3,7,4′-trihydroxyflavone] | 3 | < 1.3 | < 1.3 | ****, ****, **** (very high activity (>76%)) | 2 | 1.5 | < 1.3 | ****, ****, **** (very high activity (>76%)) | 3 | 2 | < 1.3 |  | none |  |  |  | 66 | ~50 | 52 | inhibition at 10 µg/mL ([2]; final dose 10 μg/ml): 9% |
| O=c1c(O)c(-c2ccc(O)c(O)c2)oc2cc(O)c(O)c(O)c12 [HI-9, quercetagetin] |  |  |  | *** (high activity (56-75%)) |  |  |  | none |  |  |  | none | none and ** (medium activity (31-55%)) | 20 | none | none |  |  |  | inhibition at 10 µg/mL (UV-induced ROS): > 70% |
| O=C1C[C@@H](c2ccc(O)cc2)Oc2cc(O)cc(O)c21 [HI-5, naringenin] | < 1.3 | < 1.3 | 1.3 | * (low activity (20-30%)) | 2 | 2 | 2 | **** (very high activity (>76%)) | 1.5 | < 1.3 | 1.5 |  | none |  | none |  | 62 | ~25 | 56 |  |
| O=c1cc(-c2ccc(O)c(O)c2)oc2cc(O)cc(O)c12 [HI-11, luteolin] | 2 | < 1.3 | < 1.3 | ****, ****, **** (very high activity (>76%)) | 1.5 | 5 | 2 | ****, ****, **** (very high activity (>76%)) | 1.8 | < 1.3 | < 1.3 |  | ** (medium activity (31-55%)) |  |  |  | > 90 | > 70 | > 90 | inhibition at 10 µg/mL ([2]; final dose 10 μg/ml): 54% |
| COc1cc(-c2oc3cc(O)cc(O)c3c(=O)c2O)ccc1O [HI-10, isorhamnetin] | 1.4 | < 1.3 | < 1.3 | ** (medium activity (31-55%)) | 2 | < 1.3 | < 1.3 | **** (very high activity (>76%)) | 1.7 | 1.8 | 4 |  |  | 43 |  |  |  | ~50 |  | inhibition at 10 µg/mL [2]: 45%; inhibition at 50 µg/mL [2]: 52% |
| Oc1cc(O)c2cc(O)c(-c3cc(O)c(O)c(O)c3)[o+]c2c1 [HI-2, delphiniden] |  |  |  | none |  |  |  | none |  |  |  | none | none |  | none | none |  |  |  | Collagen 1A induction (collagen 1A; final dose 10 μg/ml): — (The dash (—) indicates <1.3x or no induction); Collagen 1A induction (collagen 1A; final dose 50 μg/ml): — (The dash (—) indicates <1.3x or no induction); Collagen 1A induction (collagen 1A; final dose 100 μg/ml): — (The dash (—) indicates <1.3x or no induction); ARE activation ([1]; final dose 10 μg/ml): — (The dash (—) indicates <1.3x or no induction); ARE activation ([1]; final dose 50 μg/ml): — (The dash (—) indicates <1.3x or no induction); ARE activation ([1]; final dose 100 μg/ml): 1.7x; Elastin induction (elastin; final dose 10 μg/ml): 1.5x; Elastin induction (elastin; final dose 50 μg/ml): — (The dash (—) indicates <1.3x or no induction); Elastin induction (elastin; final dose 100 μg/ml): — (The dash (—) indicates <1.3x or no induction); % inhibition of NF-κB ([2]; final dose 100 μg/ml): none; % inhibition of UV-induced ROS (UV-induced ROS; final dose 10 μg/ml): >70% |
